Results reported in EPA's ToxRefDB 2.

How the values were obtained:
mouse = conditions: Carcinogenicity; cd1; Oral; [Not Specified]; group: systemic; systemic / in life observation / body weight / body weight gain
dog [1] = conditions: Chronic toxicity, beagle, Oral, Feed, dose end: 52 week, group: systemic
rat [2] = conditions: Subchronic oral toxicity in rodents, wistar, Feed, dose end: 90 day, group: systemic, systemic / in life observation / body weight / body weight + systemic / in life observation / body weight / body weight gain + systemic / in…
rabbit = conditions: Prenatal developmental toxicity study, new zealand white, Oral, Gavage/Intubation, dose end: 19 GD
dog [3] = conditions: Subchronic oral toxicity in nonrodent, beagle, Feed, dose end: 13 week, group: systemic
rat [4] = conditions: Combined chronic toxicity/carcinogenicity; wistar; Oral; Feed; dose end: 104 week; group: systemic; systemic / in life observation / body weight / body weight + systemic / in life observation / body weight / body weight gain
rat [5] = conditions: Prenatal developmental toxicity study, sprague dawley, Oral, Gavage/Intubation, dose end: 15 GD
rat [6] = conditions: Multigenerational reproductive toxicity study, wistar, Oral, Feed, dose end: 2 generation
rat [7] = conditions: Subchronic oral toxicity in rodents, other, Feed, dose end: 10 week, group: systemic, systemic / in life observation / body weight / body weight gain
rat [8] = conditions: Sub-acute repeat dose toxicity; fischer; Oral; Gavage/Intubation; dose end: 14 day; group: systemic; systemic / hematology / leukocyte (wbc) count differential / leukocyte (wbc) + systemic / hematology / nucleated red blood cell (nrbc) / …
rat [9] = conditions: Carcinogenicity, other, Oral, Feed, dose end: 102 week, group: systemic
rat [10] = conditions: Subchronic oral toxicity in rodents, fischer, Gavage/Intubation, dose end: 13 week
[11] = systemic / in life observation / food consumption / food consumption
[12] = group: developmental, developmental / developmental malformation / bone / supernumerary + developmental / developmental malformation / bone / extra ossification …
[13] = group: maternal, systemic / in life observation / body weight / body weight gain + systemic / in life observation / clinical signs / abnormal feces
[14] = group: maternal, systemic / in life observation / body weight / body weight gain + systemic / in life observation / clinical signs / abnormal feces + …
[15] = systemic / pathology microscopic / bone marrow / hyperplasia + systemic / pathology microscopic / liver / hematopoietic cell proliferation
[16] = systemic / pathology microscopic / bone marrow / hyperplasia + systemic / pathology microscopic / liver / hematopoietic cell proliferation…
[17] = group: developmental, developmental / developmental malformation / bone / incomplete ossification + systemic / in life observation / body weight / fetal weight
[18] = group: maternal, systemic / in life observation / body weight / body weight gain + systemic / in life observation / food consumption / food consumption
[19] = group: offspring, developmental / developmental malformation / general / runts + systemic / in life observation / body weight / offspring (pup) weight + …
[20] = group: offspring, developmental / developmental malformation / general / runts + systemic / organ weight / thymus / absolute + systemic / organ weight / …
[21] = group: reproductive, reproductive / offspring survival early / birth index / live birth index
[22] = systemic / pathology microscopic / nose / inflammation
[23] = group: cholinesterase, cholinesterase / cholinesterase / cholinesterase / cholinesterase (che)
[24] = group: systemic, systemic / hematology / hematocrit (hct) / hematocrit (hct) + systemic / hematology / hemoglobin (hgb) / hemoglobin (hgb) + systemic / in …
[25] = group: systemic, systemic / hematology / polychromasia / polychromasia

C/C(=N\NC(=O)Nc1cc(F)cc(F)c1)c1ncccc1C(=O)O [Diflufenzopyr]
LEL (mouse): 1000 mg/kg/day | LOAEL (mouse): > 1000 mg/kg/day | NEL (mouse): 500 mg/kg/day | NOAEL (mouse): ≥ 1000 mg/kg/day | LOAEL (dog [1]; systemic / hematology / reticulocyte / reticulocyte + systemic / pathology microscopic / bone marrow / hyperplasia): 299 mg/kg/day | NOAEL (dog [1]; systemic / hematology / reticulocyte / reticulocyte + systemic / pathology microscopic / bone marrow / hyperplasia + systemic / hematology…): 26 mg/kg/day | LEL (dog [1]; [11]): 26 mg/kg/day | NEL (dog [1]; [11]): < 26 mg/kg/day | LEL (rat [2]): 725 mg/kg/day | LOAEL (rat [2]): 725 mg/kg/day | NEL (rat [2]): 352 mg/kg/day | NOAEL (rat [2]): 352 mg/kg/day | LOAEL (rabbit; group: developmental, developmental / developmental malformation / bone / supernumerary): 300 mg/kg/day | LEL (rabbit; [12]): 300 mg/kg/day | NEL (rabbit; [12]): 100 mg/kg/day | NOAEL (rabbit; [12]): 100 mg/kg/day | LEL (rabbit; [13]): 100 mg/kg/day | LOAEL (rabbit; [13]): 100 mg/kg/day | NEL (rabbit; [14]): 30 mg/kg/day | NOAEL (rabbit; [14]): 30 mg/kg/day | LEL (dog [3]; [15]): 403 mg/kg/day | LOAEL (dog [3]; [15]): 403 mg/kg/day | NEL (dog [3]; [16]): 58 mg/kg/day | NOAEL (dog [3]; [16]): 58 mg/kg/day | LEL (rat [4]): 69 mg/kg/day | LOAEL (rat [4]): > 518 mg/kg/day | NEL (rat [4]): 22 mg/kg/day | NOAEL (rat [4]): ≥ 518 mg/kg/day | LEL (rat [5]; [17]): 1000 mg/kg/day | LOAEL (rat [5]; [17]): 1000 mg/kg/day | NEL (rat [5]; [17]): 300 mg/kg/day | NOAEL (rat [5]; [17]): 300 mg/kg/day | LEL (rat [5]; [18]): 1000 mg/kg/day | LOAEL (rat [5]; [18]): 1000 mg/kg/day | NEL (rat [5]; [18]): 300 mg/kg/day | NOAEL (rat [5]; [18]): 300 mg/kg/day | LEL (rat [6]; [19]): 552 mg/kg/day | LOAEL (rat [6]; [19]): 552 mg/kg/day | NEL (rat [6]; [20]): 126 mg/kg/day | NOAEL (rat [6]; [20]): 126 mg/kg/day | LEL (rat [6]; [21]): 552 mg/kg/day | LOAEL (rat [6]; [21]): 552 mg/kg/day | NEL (rat [6]; [21]): 126 mg/kg/day | NOAEL (rat [6]; [21]): 126 mg/kg/day

Cc1cccc(C)c1N [2,6-Dimethylaniline]
LEL (rat [7]): 150 mg/kg/day | LOAEL (rat [7]): 150 mg/kg/day | NEL (rat [7]): 50 mg/kg/day | NOAEL (rat [7]): 50 mg/kg/day | LEL (rat [8]): 310 mg/kg/day | LOAEL (rat [8]): 310 mg/kg/day | NEL (rat [8]): 160 mg/kg/day | NOAEL (rat [8]): 160 mg/kg/day | LOAEL (rat [9]; systemic / in life observation / body weight / body weight gain): 50 mg/kg/day | NOAEL (rat [9]; systemic / in life observation / body weight / body weight gain + systemic / pathology microscopic / adrenal gland / adenoma + systemic / …): 15 mg/kg/day | LEL (rat [9]; [22]): 15 mg/kg/day | NEL (rat [9]; [22]): < 15 mg/kg/day | LEL (rat [10]; [23]): 160 mg/kg/day | LOAEL (rat [10]; [23]): > 310 mg/kg/day | NEL (rat [10]; [23]): 80 mg/kg/day | NOAEL (rat [10]; [23]): ≥ 310 mg/kg/day | LOAEL (rat [10]; [24]): 310 mg/kg/day | NOAEL (rat [10]; [24]): 160 mg/kg/day | LEL (rat [10]; [25]): 20 mg/kg/day | NEL (rat [10]; [25]): < 20 mg/kg/day
